In patent publication US10870647B2, “Imidazopyridine derivative, method for preparing same, and pharmaceutical composition containing same as active ingredient for preventing or treating cancer” (DAEGU-GYEONGBUK MEDICAL INNOVATION FOUNDATION, priority 2016, dated 2020) one finds remaining binding data, which are given here for three compounds.

SMILES strings stand for the structures.

Holding throughout (assay): Kinase selectivity, scanMAX Kinase assay panel (DiscoverX), % control at 1 uM
What all share (assay type): binding

In test [1] the target is T1, scanMAX Kinase assay panel (Homo sapiens, UniProt P54646).
T1 construct: purchased DiscoverX
Particulars: AMPK-alpha2; 1 uM; read-out: Percent Control (%). A digest of the protocol: (§1)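 Each kinase was first exposed to the test compound at 1 uM in DMSO. Signal was then normalised to positive and negative controls to give % control. Finally, any enzyme showing <35% control was judged inhibited.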

In test [2] the target is T2, scanMAX Kinase assay panel (Homo sapiens, UniProt P54762).
T2 construct: purchased DiscoverX
T2 sequence (P54762 18-984): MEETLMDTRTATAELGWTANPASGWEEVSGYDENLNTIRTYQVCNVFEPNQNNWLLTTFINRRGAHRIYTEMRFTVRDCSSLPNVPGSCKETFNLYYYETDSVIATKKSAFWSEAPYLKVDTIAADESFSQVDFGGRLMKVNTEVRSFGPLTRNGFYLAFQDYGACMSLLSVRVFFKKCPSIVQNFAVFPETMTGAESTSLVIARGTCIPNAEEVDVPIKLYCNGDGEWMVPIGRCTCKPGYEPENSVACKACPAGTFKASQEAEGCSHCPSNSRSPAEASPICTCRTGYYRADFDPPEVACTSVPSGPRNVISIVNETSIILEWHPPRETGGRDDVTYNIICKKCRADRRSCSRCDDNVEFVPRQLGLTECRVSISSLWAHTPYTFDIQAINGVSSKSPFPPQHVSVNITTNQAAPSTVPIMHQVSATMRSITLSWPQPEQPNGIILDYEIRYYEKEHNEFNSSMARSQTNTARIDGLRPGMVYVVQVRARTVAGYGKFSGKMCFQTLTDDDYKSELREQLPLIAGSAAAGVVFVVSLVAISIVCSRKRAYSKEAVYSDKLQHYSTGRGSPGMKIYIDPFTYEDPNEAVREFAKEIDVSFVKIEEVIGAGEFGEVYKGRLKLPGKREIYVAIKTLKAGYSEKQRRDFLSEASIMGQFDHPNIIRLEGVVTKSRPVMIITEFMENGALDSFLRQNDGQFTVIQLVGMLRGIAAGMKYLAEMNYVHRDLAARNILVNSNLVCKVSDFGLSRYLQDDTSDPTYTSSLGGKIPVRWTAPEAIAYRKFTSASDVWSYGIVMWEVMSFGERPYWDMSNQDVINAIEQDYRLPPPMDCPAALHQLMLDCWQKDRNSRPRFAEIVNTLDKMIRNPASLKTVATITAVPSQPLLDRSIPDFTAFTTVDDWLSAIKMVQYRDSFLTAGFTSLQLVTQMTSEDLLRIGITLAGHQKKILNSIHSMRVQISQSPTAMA
Particulars: EPHB1; 1 uM; read-out: Percent Control (%). In short, it runs like this: as §1

Test [3] concerns the target T3, scanMAX Kinase assay panel (Homo sapiens, UniProt Q6P3R8).
T3 construct: purchased DiscoverX
T3 sequence (Q6P3R8 1-708): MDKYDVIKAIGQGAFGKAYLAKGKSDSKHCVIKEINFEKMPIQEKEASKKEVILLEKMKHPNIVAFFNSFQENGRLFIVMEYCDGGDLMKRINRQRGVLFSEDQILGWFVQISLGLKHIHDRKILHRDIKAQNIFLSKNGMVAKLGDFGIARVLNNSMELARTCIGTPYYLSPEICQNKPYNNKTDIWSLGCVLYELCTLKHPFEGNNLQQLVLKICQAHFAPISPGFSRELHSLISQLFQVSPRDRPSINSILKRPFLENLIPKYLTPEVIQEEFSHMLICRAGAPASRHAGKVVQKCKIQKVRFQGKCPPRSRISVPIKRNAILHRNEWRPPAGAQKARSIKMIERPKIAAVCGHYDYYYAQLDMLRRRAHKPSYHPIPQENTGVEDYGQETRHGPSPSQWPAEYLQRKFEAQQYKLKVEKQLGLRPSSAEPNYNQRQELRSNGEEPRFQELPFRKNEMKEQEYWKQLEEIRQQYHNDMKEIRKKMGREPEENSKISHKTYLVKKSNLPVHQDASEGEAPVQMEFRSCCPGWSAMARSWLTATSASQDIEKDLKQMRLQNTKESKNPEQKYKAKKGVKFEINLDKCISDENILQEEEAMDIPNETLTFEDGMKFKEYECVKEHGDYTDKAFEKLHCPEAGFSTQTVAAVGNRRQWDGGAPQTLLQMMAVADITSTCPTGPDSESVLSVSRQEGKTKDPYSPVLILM
Particulars: NEK5; 1 uM; read-out: Percent Control (%). A digest of the protocol: as §1

The target in test [4] is T4, scanMAX Kinase assay panel (Homo sapiens, UniProt Q9H093).
T4 construct: purchased DiscoverX
T4 sequence (Q9H093 1-628): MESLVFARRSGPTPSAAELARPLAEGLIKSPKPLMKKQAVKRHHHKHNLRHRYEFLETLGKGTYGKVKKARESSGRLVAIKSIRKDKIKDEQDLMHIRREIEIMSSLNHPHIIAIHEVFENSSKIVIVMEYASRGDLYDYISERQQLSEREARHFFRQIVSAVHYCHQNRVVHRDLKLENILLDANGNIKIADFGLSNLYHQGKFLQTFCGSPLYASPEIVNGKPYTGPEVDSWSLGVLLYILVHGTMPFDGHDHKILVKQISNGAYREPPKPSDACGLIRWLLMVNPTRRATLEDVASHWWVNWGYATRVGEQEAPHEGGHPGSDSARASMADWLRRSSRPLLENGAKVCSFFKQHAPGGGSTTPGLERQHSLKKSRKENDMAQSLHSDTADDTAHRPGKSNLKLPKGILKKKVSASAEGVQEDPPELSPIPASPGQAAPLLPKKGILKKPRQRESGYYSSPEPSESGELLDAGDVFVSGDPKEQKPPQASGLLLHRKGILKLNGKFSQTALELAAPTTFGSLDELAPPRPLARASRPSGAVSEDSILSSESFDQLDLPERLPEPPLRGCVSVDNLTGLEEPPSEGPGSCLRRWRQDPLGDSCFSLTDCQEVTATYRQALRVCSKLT
Particulars: SNARK; 1 uM; read-out: Percent Control (%). In short, it runs like this: as §1

Test [5] addresses T5, scanMAX Kinase assay panel (Homo sapiens, UniProt Q9NYL2).
T5 construct: purchased DiscoverX
Particulars: ZAK; 1 uM; read-out: Percent Control (%). In short, it runs like this:
as §1

T5 sequence (Q9NYL2 whole entry): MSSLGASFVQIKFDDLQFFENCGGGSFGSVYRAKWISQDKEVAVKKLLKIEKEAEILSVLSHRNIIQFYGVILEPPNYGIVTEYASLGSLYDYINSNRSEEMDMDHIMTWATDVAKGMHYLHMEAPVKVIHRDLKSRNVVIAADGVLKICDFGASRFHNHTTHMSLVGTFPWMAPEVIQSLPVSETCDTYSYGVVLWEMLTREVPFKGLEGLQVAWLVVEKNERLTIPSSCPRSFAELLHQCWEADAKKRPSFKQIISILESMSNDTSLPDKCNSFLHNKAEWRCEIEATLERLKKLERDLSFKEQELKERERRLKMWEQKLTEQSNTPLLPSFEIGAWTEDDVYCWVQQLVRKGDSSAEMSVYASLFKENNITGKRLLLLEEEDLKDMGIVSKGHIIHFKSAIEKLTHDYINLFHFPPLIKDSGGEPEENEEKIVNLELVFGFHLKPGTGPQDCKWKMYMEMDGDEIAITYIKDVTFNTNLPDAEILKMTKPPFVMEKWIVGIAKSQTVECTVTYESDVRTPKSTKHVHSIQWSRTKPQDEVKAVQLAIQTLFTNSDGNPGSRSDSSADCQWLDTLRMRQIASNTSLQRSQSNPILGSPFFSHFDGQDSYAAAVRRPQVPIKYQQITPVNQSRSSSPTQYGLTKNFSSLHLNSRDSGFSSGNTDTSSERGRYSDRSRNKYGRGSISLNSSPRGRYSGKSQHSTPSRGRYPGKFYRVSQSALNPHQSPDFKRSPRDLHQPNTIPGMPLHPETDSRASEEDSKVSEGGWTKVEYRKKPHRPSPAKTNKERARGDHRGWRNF
T1 sequence (P54646 whole entry): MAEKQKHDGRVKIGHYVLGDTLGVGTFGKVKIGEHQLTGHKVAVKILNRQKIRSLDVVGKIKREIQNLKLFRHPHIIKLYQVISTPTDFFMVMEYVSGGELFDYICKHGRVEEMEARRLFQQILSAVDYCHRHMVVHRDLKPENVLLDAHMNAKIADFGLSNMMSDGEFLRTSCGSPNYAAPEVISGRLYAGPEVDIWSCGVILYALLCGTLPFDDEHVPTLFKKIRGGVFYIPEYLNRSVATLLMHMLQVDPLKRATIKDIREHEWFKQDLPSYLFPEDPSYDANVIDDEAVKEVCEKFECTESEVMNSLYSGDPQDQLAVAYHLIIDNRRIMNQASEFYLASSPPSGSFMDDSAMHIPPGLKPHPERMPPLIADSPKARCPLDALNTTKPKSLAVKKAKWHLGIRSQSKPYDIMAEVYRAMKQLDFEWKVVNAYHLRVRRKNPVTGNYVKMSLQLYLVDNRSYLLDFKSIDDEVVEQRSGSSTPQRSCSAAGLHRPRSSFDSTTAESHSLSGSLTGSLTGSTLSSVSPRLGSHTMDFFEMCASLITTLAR

As to `Cc1ccc(C(=O)Nc2ccc(CN3CCN(C)CC3)c(C(F)(F)F)c2)cc1C#Cc1cnc2c(Nc3cnn(C)c3)cccn12` [Example 1, 4-methyl-3-((8-((1-methyl-1H-pyrazol-4-yl)amino)imidazo[1,2-a]pyridin-3-yl)ethynyl)-N-(4-((4-methylpiperazin-1-yl)methyl)-3-(trifluoromethyl)phenyl)benzamide], the remaining binding at 1 µM in test [1] was found to be 4%; in test [2], 0%; in test [3] it was 2%; in test [4], 73%; in test [5] it was 1%.
For the compound `Cc1cn(-c2cc(NC(=O)c3ccc(C)c(C#Cc4cnc5c(Nc6cnn(C)c6)cccn45)c3)cc(C(F)(F)F)c2)cn1` [Example 12, 4-methyl-N-(3-(4-methyl-1H-imidazol-1-yl)-5-(trifluoromethyl)phenyl)-3-((8-((1-methyl-1H-pyrazol-4-yl)amino)imidazo[1,2-a]pyridin-3-yl)ethynyl)benzamide], the remaining binding at 1 µM in test [1] was determined as 79%; in test [2] it was 15%; in test [3], 86%; in test [4], 100%; in test [5] it was 1%.
For `Cc1ccc(NC(=O)C2(C(=O)Nc3ccc(F)cc3)CC2)cc1C#Cc1cnc2c(Nc3cnn(C(C)C)c3)cccn12` [Example 78], in that order: 100%, 90%, 100%, 68% and 19%.
